Results: patent US12594267B2, “Capsid inhibitors for the treatment of HIV” (Gilead Sciences, Inc., priority 2018, dated 2026)
Where two headings read alike, the source gives them in different places.

Legend:
Type in all cases: cell-based, HIV-1
NNRTI-resistant viruses = assay: Cytopathic antiviral assay in MT-2 cells, NNRTI-resistant viruses; settings: Mutant/WT (HXB2D) EC50 ratio, mean ± s.d. of three experiments
Procedure: (§1) The antiviral activity of the compound of Formula (a) was tested against a panel of known HIV-1 mutants resistant to HIV PIs (ATV and DRV), NRTIs (TFV and FTC), NNRTIs (RPV and EFV) or INSTIs (RAL, EVG and DTG) using a cytopathic antiviral assay in MT-2 cells. The compound of Formula (Ia) was fully active against all tested mutants resistant to PIs (Table 11), NRTIs (Table 12), NNRTIs (Table 13) or INSTIs (Table 14).

NRTI-resistant viruses = settings: Mutant/WT (LAI) EC50 ratio, MT-2 cells, mean ± s.d. of three experiments
Procedure: (§2) The antiviral activity of the compound of Formula (a) was tested against a panel of known HIV-1 mutants resistant to HIV PIs (ATV and DRV), NRTIs (TFV and FTC), NNRTIs (RPV and EFV) or INSTIs (RAL, EVG and DTG) using a cytopathic antiviral assay in MT-2 cells.

PI-resistant viruses = assay: Cytopathic antiviral assay in MT-2 cells, PI-resistant viruses; settings: Mutant/WT (HXB2D) EC50 ratio, mean ± s.d. of three experiments
Procedure: as §1

WT HXB2D = assay: Cytopathic antiviral assay in MT-2 cells, wild type HXB2D; settings: Human immunodeficiency virus 1, MT2, read-out: WT HXB2D EC50, MT-2 cells, mean ± s.d. of three experiments in triplicate
Procedure: as §1

WT LAI = assay: microbe, parasite or virus in culture; settings: Human immunodeficiency virus 1, MT2, read-out: WT LAI EC50
Procedure: as §2

INSTI-resistant viruses = assay: Cytopathic antiviral assay in MT-2 cells, INSTI-resistant viruses; settings: Mutant/WT (HXB2D) EC50 ratio, mean ± s.d. of three experiments
Procedure: as §1

## COC(=O)N[C@H](C(=O)N[C@@H](Cc1ccccc1)[C@@H](O)CN(Cc1ccc(-c2ccccn2)cc1)NC(=O)[C@@H](NC(=O)OC)C(C)(C)C)C(C)(C)C [ATV, atazanavir]
NNRTI-resistant viruses; K103N
  EC50 Fold-Change: 0.6 ± 0.3
NNRTI-resistant viruses; K103N/Y181C
  EC50 Fold-Change: 0.6 ± 0.3
NNRTI-resistant viruses; L100I/K103N
  EC50 Fold-Change: 0.6 ± 0.3
NNRTI-resistant viruses; Y181C
  EC50 Fold-Change: 1.8 ± 1.0
NNRTI-resistant viruses; Y188L
  EC50 Fold-Change: 0.6 ± 0.3
NRTI-resistant viruses; 6TAMs
  EC50 Fold-Change: 0.5 ± 0.2
NRTI-resistant viruses; K65R
  EC50 Fold-Change: 0.9 ± 0.3
NRTI-resistant viruses; M184V
  EC50 Fold-Change: 0.6 ± 0.2
PI-resistant viruses; G48V/V82A/L90M
  EC50 Fold-Change: 32.5 ± 11.9
PI-resistant viruses; G48V/V82S
  EC50 Fold-Change: 15.4 ± 3.1
PI-resistant viruses; I50V
  EC50 Fold-Change: 3.5 ± 0.4
PI-resistant viruses; I84V/L90M
  EC50 Fold-Change: 33.1 ± 7.8
WT HXB2D; INSTI-resistance panel (Table 14)
  EC50: 3.7 ± 1.07 nM
WT HXB2D; NNRTI-resistance panel (Table 13)
  EC50: 4.6 ± 1.48 nM
WT HXB2D; PI-resistance panel (Table 11)
  EC50: 4.18 ± 0.46 nM
WT LAI
  EC50: 4.78 ± 1.26 nM
INSTI-resistant viruses; E92Q/N155H
  EC50 Fold-Change: 1.0 ± 0.4
INSTI-resistant viruses; E138K/Q148K
  EC50 Fold-Change: 0.8 ± 0.3
INSTI-resistant viruses; G140S/Q148R
  EC50 Fold-Change: 1.1 ± 0.5
INSTI-resistant viruses; N155H/Q148R
  EC50 Fold-Change: 0.9 ± 0.4
INSTI-resistant viruses; R263K/M50I
  EC50 Fold-Change: 1.1 ± 0.6
INSTI-resistant viruses; Y143R
  EC50 Fold-Change: 0.8 ± 0.2
